Converted amounts (≈) assume the structure as drawn. Where two headings read alike, the source gives them in different places.
Columns and labels:
[1] = molecular target: pre-established 1 mg/mL collagen networks (Bos taurus, UniProt P02453+P02465); conditions: 37° C., 180 minutes, critical concentration
[2] = molecular target: T1, pre-existing A546-labeled collagen network (Bos taurus, UniProt P02453+P02465); experiment: Dual-fluorescence incorporation of soluble collagen into a pre-existing collagen network (colocalization, PCC); type: biochemical, bovine; conditions: 0.5 M GlcNAc, 0.5 M Gal or 1 M GlucA; 0.025 mg/mL collagen, 1 hour, 37° C., n=10 images
T1 construct: acetic acid-extracted bovine type I collagen; purchased Advanced Biomatrix 5026-1 KIT; host or cells: extracted from bovine tissue, then labelled in house
From the text: Collagen was fluorescently labeled by the following procedure. Collagen was amine-labeled with either Alexa Fluor 546 NHS Ester (Thermo Fisher Scientific, A20002) or Alexa Fluor 488 TFP (Thermo Fisher Scientific, A30005) according to the protocol of Paten et al. (Paten, J. A., et al., 2019). Collagen was labeled with A488 solution in a 5:1 molar ratio of A488:collagen and then purified using a 10,000 MWCO Slide-A-Lyzer dialysis cassette (Thermo Fisher Scientific, 66380). The same process was performed with A546 in a 5:1 molar ratio of A546:collagen. Prior to use, the collagen concentration was determined by a modified Lowry assay (Bio-Rad, DC-Protein Assay), and the labeling efficiency was determined according to previous reports (Paten, J. A., et al., 2019).
To test if the critical saccharide concentrations would allow the soluble collagen to incorporate into a pre-existing matrix, despite the observed nucleation inhibition, first a collagen network was polymerized labeled with a A546 (red) at 37° C. using the example procedure described above. Then a mixture of A488-labeled collagen (green) with a nucleation-inhibiting concentration of either GlcNAc, Gal, or GlucA was added to the pre-existing A546-labeled collagen network. In all cases, distinct fibrillar networks of A488-collagen after a 1 hour incubation and exhaustive rinsing to reduce non-specific binding was observed.
The ability for soluble collagen to incorporate into a pre-established collagen network in the presence of monosaccharides was investigated with fluorescent imaging using an inverted microscope (Nikon, ECLIPSE Ti2) with a 0.45 numerical aperture 20× objective (Nikon, MRH08230) and a CMOS camera (Andor, Zyla 4.2). […]
The Imaging and Colocalization Analysis of the Dual-Fluorescence collagen Network was conducted using the following procedure. For imaging the A546-labeled collagen network, the excitation signal (CoolLED, PE-300-W-L-SB-40) was passed through a 530±15 nm filter, and the emission signal was detected after passing through a 575±20 nm filter (Chroma Technology, 49014). […]

[3] = molecular target: T2, acetic acid-extracted bovine type I collagen (Bos taurus, UniProt P02453+P02465); type: biochemical; conditions: for critical concentration at which collagen assembly was completely inhibited / effect on collagen assembly kinetics and ODmax / lag time (lag phase at 30% assembly) / effect on collagen assembly: 1 mg/mL collagen; for critical concentration at which collagen assembly was completely inhibited: 37° C., pH 7.3; for effect on collagen assembly kinetics and ODmax: 0.125 M; for lag time (lag phase at 30% assembly): 0.25 M total saccharide; for effect on collagen assembly: 0.5 M (each component 0.5 M for Gal with acetic acid; 0.5 M total for ratios); for Rates of Collagen Assembly (KA), 30% to 70%: n=9, ± SD
T2 construct: acetic acid-extracted bovine type I collagen; purchased Advanced Biomatrix 5026-1 KIT
Protocol: In the experiments below, acetic acid-extracted bovine type I collagen (Advanced Biomatrix, 5026-1 KIT) was mixed with monosaccharide solutions, and/or acetic acid, such that the final collagen concentration was either 0.5 or 1 mg/mL and final saccharide concentration ranged from 0-1 M. Concentrated Tris-buffered saline (10×TBS) at 0.25 M trizma base (Sigma Aldrich, T4661) and 1.3 M sodium chloride
(Fisher Chemical, S271-500), was used as 10% of the solution volume to maintain a physiological pH and ionic strength, and 0.25 M sodium hydroxide was used for a final pH adjustment to 7.3. Any remaining volume in the solution recipes was fulfilled via the addition of deionized water.
Experiments included mixing collagen with a concentrated monosaccharide solution, neutralizing it, and measuring turbidity spectrophotometrically (313 nm) over the course of two hours. In the absence of monosaccharides, 1 mg/mL collagen fully polymerized within minutes, as expected (Williams, B. R., et al., 1978). […] The increased ODmax caused by the monosaccharides cannot be fully attributed to the contribution of the monosaccharides in solution (Table 2) (Hayashi & Nagai, 1972; Wood & Keech, 1960).
To study the assembly of collagen, the kinetics of collagen assembly in the presence of monosaccharides were monitored using a plate-reader spectrophotometer (Molecular Devices, SpectraMax M5). Working in triplicate, 100 μL of the mixed collagen and saccharide solution was pipetted into a 96-well plate and layered with 100 μL of silicone oil to prevent evaporation. […] Each test condition was repeated three times for a total of n=9 data sets.
The analyze the assembly kinetics, turbidity assays were analyzed and normalized between 0-1 using Equation 1, where OD represents the optical density.
To analyze the kinetics, 0% assembly was defined as the absorbance value when the minimum absorbance was recorded, and 100% corresponded to the maximum value. 10, 30, 70 and 90% absorbance and corresponding timepoints were calculated using linear interpolation between the two bounding data points. Error bars were calculated as standard error of the mean. Rate of assembly was determined by calculating the slope between 30% and 70% assembly for each data set.

physchem = conditions: 37 °C, pH 5, aqueous buffer
[4] = Baseline absorbance of the monosaccharide solutions without collagen; type: physicochemical; conditions: 313 nm, 37° C., no collagen, n=3
From the text: No collagen was present in these samples.

[5] = Stock solutions made near maximum solubility; conditions: 37 °C, pH 5, aqueous buffer
[6] = carboxylic acid of GlucA; cited from earlier work
[7] = collagen 0.5 mg/mL, 0.125M saccharide
[8] = collagen 0.5 mg/mL, 0.25M saccharide
[9] = collagen 1 mg/mL, 0.125M saccharide
[10] = collagen 1 mg/mL, 0.25M saccharide

T2 sequence (P02453 162-1217 limits assumed): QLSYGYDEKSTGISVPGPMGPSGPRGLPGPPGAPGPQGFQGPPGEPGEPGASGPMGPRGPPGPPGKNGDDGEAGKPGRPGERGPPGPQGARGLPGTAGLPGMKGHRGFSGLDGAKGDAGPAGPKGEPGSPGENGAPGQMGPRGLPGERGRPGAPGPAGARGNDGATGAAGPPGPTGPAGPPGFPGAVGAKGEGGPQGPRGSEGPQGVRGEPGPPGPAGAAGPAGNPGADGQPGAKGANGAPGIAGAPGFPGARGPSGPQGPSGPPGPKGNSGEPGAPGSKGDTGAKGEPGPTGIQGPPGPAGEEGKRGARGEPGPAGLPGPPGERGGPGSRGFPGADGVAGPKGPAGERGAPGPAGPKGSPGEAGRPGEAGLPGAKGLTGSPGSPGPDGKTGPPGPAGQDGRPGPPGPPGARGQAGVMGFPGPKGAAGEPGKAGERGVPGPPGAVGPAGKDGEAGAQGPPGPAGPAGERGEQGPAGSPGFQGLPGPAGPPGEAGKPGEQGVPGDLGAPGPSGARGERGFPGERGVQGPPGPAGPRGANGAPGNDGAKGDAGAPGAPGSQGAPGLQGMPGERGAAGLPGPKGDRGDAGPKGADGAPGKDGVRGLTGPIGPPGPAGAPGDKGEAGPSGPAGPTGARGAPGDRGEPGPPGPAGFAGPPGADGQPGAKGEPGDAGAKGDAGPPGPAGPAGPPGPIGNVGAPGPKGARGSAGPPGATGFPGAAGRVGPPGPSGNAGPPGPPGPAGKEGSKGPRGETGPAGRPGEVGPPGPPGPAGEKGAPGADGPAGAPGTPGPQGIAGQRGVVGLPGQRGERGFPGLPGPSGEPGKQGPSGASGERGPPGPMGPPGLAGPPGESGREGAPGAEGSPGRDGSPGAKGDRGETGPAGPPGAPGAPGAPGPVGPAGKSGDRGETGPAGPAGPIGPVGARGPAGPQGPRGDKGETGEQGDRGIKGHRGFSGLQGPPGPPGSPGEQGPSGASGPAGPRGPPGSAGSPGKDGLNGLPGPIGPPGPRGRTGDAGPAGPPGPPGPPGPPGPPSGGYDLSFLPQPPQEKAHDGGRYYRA
T2 sequence (P02465 80-1117 limits assumed): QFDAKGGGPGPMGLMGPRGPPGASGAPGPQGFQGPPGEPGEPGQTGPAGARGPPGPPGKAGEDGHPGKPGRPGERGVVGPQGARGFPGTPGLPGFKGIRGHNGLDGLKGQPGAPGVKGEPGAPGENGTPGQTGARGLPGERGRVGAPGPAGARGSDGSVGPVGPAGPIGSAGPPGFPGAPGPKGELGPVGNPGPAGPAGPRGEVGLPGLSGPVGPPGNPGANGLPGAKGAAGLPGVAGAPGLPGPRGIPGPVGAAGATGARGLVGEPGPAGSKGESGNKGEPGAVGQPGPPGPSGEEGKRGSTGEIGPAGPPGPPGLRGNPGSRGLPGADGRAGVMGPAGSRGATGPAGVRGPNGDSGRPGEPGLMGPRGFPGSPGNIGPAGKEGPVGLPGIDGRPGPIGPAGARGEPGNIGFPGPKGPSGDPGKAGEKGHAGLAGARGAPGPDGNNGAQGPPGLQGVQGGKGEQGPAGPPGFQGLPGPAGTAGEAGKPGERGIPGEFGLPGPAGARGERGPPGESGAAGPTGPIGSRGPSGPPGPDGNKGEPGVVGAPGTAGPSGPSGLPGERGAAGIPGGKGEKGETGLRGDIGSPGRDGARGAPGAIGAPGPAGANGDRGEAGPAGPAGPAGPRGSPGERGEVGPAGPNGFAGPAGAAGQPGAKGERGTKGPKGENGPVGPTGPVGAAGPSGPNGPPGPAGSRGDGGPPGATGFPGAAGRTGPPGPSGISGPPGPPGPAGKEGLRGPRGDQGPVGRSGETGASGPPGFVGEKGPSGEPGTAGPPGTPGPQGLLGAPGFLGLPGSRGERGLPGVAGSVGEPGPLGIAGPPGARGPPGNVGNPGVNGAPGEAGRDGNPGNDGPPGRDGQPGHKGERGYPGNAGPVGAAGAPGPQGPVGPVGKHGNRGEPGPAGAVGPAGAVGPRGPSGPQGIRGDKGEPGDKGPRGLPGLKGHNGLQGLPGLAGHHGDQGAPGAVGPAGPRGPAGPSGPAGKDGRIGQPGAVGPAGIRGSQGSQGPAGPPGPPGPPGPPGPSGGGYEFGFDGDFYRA
T1 sequence (P02453 162-1217 limits assumed): as the sequence (P02453 162-1217 limits assumed) above
T1 sequence (P02465 80-1117 limits assumed): as the sequence (P02465 80-1117 limits assumed) above
Sequence of pre-established 1 mg/mL collagen networks (P02453 162-1217 limits assumed): as the sequence (P02453 162-1217 limits assumed) above
Sequence of pre-established 1 mg/mL collagen networks (P02465 80-1117 limits assumed): as the sequence (P02465 80-1117 limits assumed) above

change in the collagen network under inverted microscope [1]	Pearson's correlation coefficient (PCC) of incorporated A488-collagen with pre-established network [2]	critical concentration at which collagen assembly was completely inhibited [3]	lag time (lag phase at 30% assembly) [3]	Rates of Collagen Assembly (KA), 30% to 70% [3, 7]	Rates of Collagen Assembly (KA), 30% to 70% [3, 8]	Rates of Collagen Assembly (KA), 30% to 70% [3, 9]	Rates of Collagen Assembly (KA), 30% to 70% [3, 10]	solubility (physchem)	Baseline absorbance ([4]; 0.125M saccharide)	Baseline absorbance ([4]; 0.25M saccharide)	Baseline absorbance ([4]; 0.5M saccharide)	SMILES	effect on collagen assembly kinetics and ODmax [3]	effect on collagen assembly [3]	Rates of Collagen Assembly (KA), 30% to 70% ([3]; collagen 0.5 mg/mL, 0.5M saccharide)	Rates of Collagen Assembly (KA), 30% to 70% ([3]; collagen 1 mg/mL, 0.5M saccharide)	solubility [5]	Baseline absorbance ([4]; 1M saccharide)	pKa [6]
minimal to no change	0.53±0.11	0.5 M	15 ± 0.6 min	14.28 ± 1.48% per second	7.22 ± 0.89% per second	28.71 ± 1.54% per second	15.96 ± 1.39% per second	~2000 mM (≈ 360 mg/mL)	0.041 ± 0.001	0.043 ± 0.001	0.044 ± 0.001	O=C[C@H](O)[C@@H](O)[C@@H](O)[C@H](O)CO [Gal, D(+)-galactose]	a delay in the lag phase and growth phase and an increase in the maximum absorbance (ODmax)	completely inhibited collagen assembly	–	–	–	–	–
–	0.66±0.10	0.5 M	16 ± 2.5 min	13.32 ± 0.63% per second	6.77 ± 0.31% per second	17.91 ± 1.52% per second	8.27 ± 0.54% per second	~1000 mM (≈ 221 mg/mL)	0.061 ± 0.001	0.074 ± 0.001	0.105 ± 0.001	CC(=O)N[C@H]1C(O)O[C@H](CO)[C@@H](O)[C@@H]1O (stereo partly drawn) [GlcNAc, N-acetyl-D-glucosamine]	a delay in the lag phase and growth phase and an increase in the maximum absorbance (ODmax)	–	–	–	–	–	–
–	–	–	–	–	–	–	–	–	–	–	–	CC(=O)O [acetic acid, reference compound]	–	little impact on the early kinetics but significantly reduced the steady-state absorbance	–	–	–	–	–

SMILES	change in the collagen network under inverted microscope [1]	Pearson's correlation coefficient (PCC) of incorporated A488-collagen with pre-established network [2]	critical concentration at which collagen assembly was completely inhibited [3]	lag time (lag phase at 30% assembly) [3]	Rates of Collagen Assembly (KA), 30% to 70% [3, 7]	Rates of Collagen Assembly (KA), 30% to 70% [3, 8]	Rates of Collagen Assembly (KA), 30% to 70% [3, 9]	Rates of Collagen Assembly (KA), 30% to 70% [3, 10]	solubility (physchem)	Baseline absorbance ([4]; 0.125M saccharide)	Baseline absorbance ([4]; 0.25M saccharide)	Baseline absorbance ([4]; 0.5M saccharide)	effect on collagen assembly kinetics and ODmax [3]	effect on collagen assembly [3]	Rates of Collagen Assembly (KA), 30% to 70% ([3]; collagen 0.5 mg/mL, 0.5M saccharide)	Rates of Collagen Assembly (KA), 30% to 70% ([3]; collagen 1 mg/mL, 0.5M saccharide)	solubility [5]	Baseline absorbance ([4]; 1M saccharide)	pKa [6]
O.O=C[C@H](O)[C@@H](O)[C@H](O)[C@H](O)C(=O)[O-].[Na+] [GlucA, D-glucuronic acid sodium salt monohydrate]	–	0.50±0.11	1 M	–	–	6.84 ± 0.47% per second	–	13.83 ± 1.10% per second	–	–	0.063 ± 0.000	0.082 ± 0.001	–	–	10.69 ± 0.53% per second	40.64 ± 2.59% per second	~2000 mM	0.120 ± 0.000	3.2

— US20230119502A1, “Collagen Nucleation Inhibitors” (Northeastern University, priority 2020, published 2023)
